For test [1], the system named is HCT-116. Description: Antiproliferative activity against human HCT-116 cells incubated for 4 days by CCK8 assay. It is filed as functional, cell-based. Particulars: HCT-116, 96 h.
Test [2] is described as follows: Inhibition of N-terminal His-tagged RBM39 (146 to 326 residues)/DCAF15 (2 to 600 residues)/full-length DDB1 (1 to 1140 residues)(unknown origin) incubated for 1 hr by fluorescence polarization assay. Also on record: species or system Homo sapiens. Background: Polarisation of emitted light reports the rotation of a fluorescent probe.
The nature of test [3]: Inhibition of DCAF15 (2 to 600 residues)/full-length DDB1 (1 to 1140 residues)(unknown origin) incubated for 1 hr by fluorescence polarization assay. Also on record: species or system Homo sapiens.
The test system of test [4] is HCT-116. Description: Induction of RBM39 degradation in human HCT-116 cells assessed as fold change at 0.1 uM incubated for 24 hrs by Western blot analysis relative to control. It is filed as cell-based. Background: Immunoblotting shows a protein as a band on a membrane.
Test [5] concerns HCT-116. Description: Induction of RBM39 degradation in human HCT-116 cells assessed as fold change at 1 uM incubated for 24 hrs by Western blot analysis relative to control. It is filed as cell-based.
For test [6], the system named is HCT-116. Description: Induction of RBM39 degradation in human HCT-116 cells at 0.1 to 1 uM incubated for 24 hrs by Western blot analysis. The format is cell-based. Particulars: dose 0.1-1 µM.
Test [7] can be described thus: Competitive inhibition of N-terminal His-tagged RBM39 (146 to 326 residues)/DCAF15 (2 to 600 residues)/full-length DDB1 (1 to 1140 residues)(unknown origin) incubated for 1 hr in presence of (R)-N-(3-(N-(3-Cyano-4-methyl-1H-indol-7-yl)sulfamoyl)phenyl)-2-(2-(((6-(3-(3',6'-dihydroxy-3-oxo-3H-spiro[isobenzofuran-1,9'-xanthen]-5-yl)thioureido)hexyl)amino)methyl)pyrrolidin-1-yl)-2-oxoacetamide by fluorescence polarization assay. Also on record: species or system Homo sapiens.

Activity calls are given as the source filed them. The rule behind the calls is not given here.

Turning to `Cc1ccc(NS(=O)(=O)c2cccc(NC(=O)C(=O)NCCCCCCN)c2)c2[nH]cc(C#N)c12`, in the test with HCT-116 [1], the 50% inhibitory concentration (IC50) came out at 150 nM.

Consider `Cc1ccc(NS(=O)(=O)c2cccc(NC(=O)C(=O)NCCCCN)c2)c2[nH]cc(C#N)c12`, for which, in the test on HCT-116 [1], the half-maximal inhibitory concentration (IC50) was found to be 1000 nM.

Consider `Cc1ccc(NS(=O)(=O)c2cccc(NC(=O)C(=O)N3CCC[C@@H]3CNCCCCCCNC(=S)Nc3ccc4c(c3)C(=O)OC43c4ccc(O)cc4Oc4cc(O)ccc43)c2)c2[nH]cc(C#N)c12`, for which the results for the IC50 in test [2] and in test [3] were 208 nM and greater than 2000 nM, respectively.

For `Cc1ccc(NS(=O)(=O)c2cccc(NC(=O)C(=O)NCCCCCN)c2)c2[nH]cc(C#N)c12`, the IC50 in the test on HCT-116 [1] was determined as 67.8 nM; in test [7], 301 nM. Besides, the figures for the fold change (FC) with HCT-116 [4] and in the test on HCT-116 [5] were 0.8 and 0.3, respectively. Also, the result in the test on HCT-116 [6] was Active.

In turn, `Cc1ccc(NS(=O)(=O)c2cccc(NC(=O)C(=O)NCCCCCCN(C)C)c2)c2[nH]cc(C#N)c12` showed a half-inhibitory concentration (IC50) in the test with HCT-116 [1] of 776 nM.

Compound `Cc1ccc(NS(=O)(=O)c2cccc(NC(=O)C(=O)N3CCC[C@@H]3CN)c2)c2[nH]cc(C#N)c12` came in with a concentration for half-maximal inhibition (IC50) in the test on HCT-116 [1] of 52.3 nM. Also, the values for the fold change (FC) with HCT-116 [4] and in the test on HCT-116 [5] were 0.52 and 0.22, respectively. Moreover, the outcome with HCT-116 [6] was Active.

In the test with HCT-116 [1], `Cc1ccc(NS(=O)(=O)c2cccc(NC(=O)C(=O)N3CCCC[C@@H]3CO)c2)c2[nH]cc(C#N)c12` came in with an IC50 of 58 nM. In addition, the fold change (FC) worked out at 0.66 with HCT-116 [4] and 0.17 with HCT-116 [5]. For the same compound, the outcome with HCT-116 [6] was Active.

Compound `Cc1ccc(NS(=O)(=O)c2cccc(NC(=O)C(=O)NCCCN)c2)c2[nH]cc(C#N)c12` had an IC50 in the test on HCT-116 [1] of 1500 nM.

In the case of `Cc1ccc(NS(=O)(=O)c2cccc(NC(=O)C(=O)NCCN)c2)c2[nH]cc(C#N)c12`, in the test with HCT-116 [1], half-maximal inhibition (IC50) required 2900 nM.

In the test with HCT-116 [1], `Cc1ccc(NS(=O)(=O)c2cccc(NC(=O)C(=O)N3CCC[C@H]3CO)c2)c2[nH]cc(C#N)c12` came in with an IC50 of 50.3 nM. Further, the fold change (FC) is 0.49 in the test on HCT-116 [4] and 0.32 in the test on HCT-116 [5]. Moreover, the result in the test on HCT-116 [6] was Active.

Turning to `Cc1ccc(NS(=O)(=O)c2cccc(NC(=O)C(=O)N3CCCC[C@H]3CO)c2)c2[nH]cc(C#N)c12`, the IC50 in the test on HCT-116 [1] was found to be 70.3 nM. The fold change (FC) in the test with HCT-116 [4] was 0.59; with HCT-116 [5], 0.21. The outcome in the test on HCT-116 [6] was Active.

`COC[C@@H]1CCCN1C(=O)C(=O)Nc1cccc(S(=O)(=O)Nc2ccc(C)c3c(C#N)c[nH]c23)c1` yielded an IC50 with HCT-116 [1] of 696 nM.

`Cc1ccc(NS(=O)(=O)c2cccc(NC(=O)C(=O)NCCCCCN(C)C)c2)c2[nH]cc(C#N)c12` returned a half-maximal inhibitory concentration (IC50) in the test on HCT-116 [1] of 398 nM.

For `COC[C@H]1CCCN1C(=O)C(=O)Nc1cccc(S(=O)(=O)Nc2ccc(C)c3c(C#N)c[nH]c23)c1`, in the test with HCT-116 [1], the midpoint of inhibition, the IC50, lay at 729 nM.

As to `Cc1ccc(NS(=O)(=O)c2cccc(NC(=O)C(=O)N3CCC[C@H]3CN)c2)c2[nH]cc(C#N)c12`, in the test with HCT-116 [1], the 50% inhibitory concentration (IC50) is 90.5 nM. The fold change (FC) was found to be 0.55 with HCT-116 [4] and 0.18 in the test on HCT-116 [5]. Moreover, the result in the test with HCT-116 [6] was Active.

Turning to `Cc1ccc(NS(=O)(=O)c2cccc(NC(=O)C(=O)NCCCCCCCN)c2)c2[nH]cc(C#N)c12`, the IC50 in the test on HCT-116 [1] was 927 nM.

As usually defined, the IC50 is the concentration that gives 50% inhibition.

Values taken from ChEMBL document CHEMBL6109117, “Synthesis of an RBM39 Degrader That Downregulates CEP192 and Induces Disorganized Spindle Structures” (J Med Chem, 2025).
